Assay results: patent publication US12226405B2, “Compounds and compositions for inhibiting the activity of HIF2-alpha and their methods of use” (Novartis AG, priority 2020, dated 2025)

Tests used:
[1] = target: HIF2α PAS-B domain (236-350, biotinylated on the N-terminus) (Homo sapiens (Human), UniProt Q99814)
Protocol: The assay buffer contained 50 mM Tris-HCl pH7 (Sigma), 20 mM NaCl (Fluka), 0.02% BSA (Sigma), 0.005% Triton X-100 (Pierce) and 1 mM DTT (Fluka). After a 30 min incubation period, 5 μL Streptavidin PVT SPA Beads (Perkin Elmer) at 1.2 mg/mL, diluted in the buffer, were added.

[2] = test system: HIF2α-regulated expression of the endogenous target gene hEGLN3 in 786-O cells; assay: Cellular iScript assay for HIF2α (quantitative RT-PCR of hEGLN3); format: cell-based, human; details: Homo sapiens, 786-0, 48 hours incubation
Protocol: (§1) Stock solutions of compounds were prepared at a concentration of 10 mM in DMSO and stored at 4° C. Where necessary to afford a full dose-response curve, the stock solutions were pre-diluted in DMSO to 1,000-fold the desired reduced start concentration. On the day after cell seeding, eleven 2-fold serial dilutions of each compound were dispensed directly into the cell assay plates using either HP 300D non-contact Digital Dispenser (TECAN) or a ATS100 acoustic dispenser (EDC Biosystems).
Compound-mediated modulation of the HIF2α-regulated expression of the endogenous target gene hEGLN3 (OMIM: 606426), as well as beta-actin (OMIM: 102630) as a house-keeping control, was assess in 786-O cells (RRID CVCL_1051) using a quantitative RT-PCR approach. In short, 786-O cells were maintained in growth medium composed of DMEM (GIBCO #11995-065), 2 mM L-Glutamine (BioConcept #5-10K50-H), 1× Penicillin/Streptomycin (BioConcept #4-01F00-H), 10% fetal calf serum (Gibco #A31608-01), 1 mM Sodium pyruvate (BioConcept #5-60F00-H). Cells were seeded at 1,000 cells/20 μL/well into white-wall, clear-bottom 384-well plates (Greiner #781098) and incubated over night at 37° C. prior to addition of serial compound dilutions as described above. Following incubation for 48 hours at 37° C., medium supernatant was discarded and the plate blotted dry by inverting on a tissue. The same procedure was repeated following one wash with 20 μL phosphate-buffered saline. Following addition of 25 μL/well iScript sample preparation reagent (BioRad #170-8899) using a 16-channel Matrix pipette, the plate was incubated for 2 min at room temperature. 20 μL lysate supernatant was then removed and transferred to a new 384 well plate (Costar #3656) and diluted 1:3 by adding 5 μL of the lysate to 10 μL H2O using a Bravo liquid handler (Agilent). 2 μL of the diluted lysate was added to the 8 μL of a mastermix containing 5 μL iTaq Universal Probes One-step kit (BioRad #172-5141), 0.25 μL iScript reverse transcription supermix (BioRad #1708840), 0.25 μL 40×HEX-ZEN-labeled TaqMan probe for beta-actin (IDT #Hs.PT.39a.22214847: Probe 5′ HEX-TCA TCC ATG/ZEN/GTG AGC TGG CGG-3′ (SEQ ID NO: 2) Iowa Black FQ, Primer 1: ACA GAG CCT CGC CTT TG (SEQ ID NO: 3); Primer 2: CCT TGC ACA TGC CGG (SEQ ID NO: 4) AG), 0.25 μL, 40×FAM-ZEN-labeled TaqMan probe for hEGLN3 (IDT #Hs.PT.58.189348: Probe 5′ 6-FAM-TTT GGC TTC/ZEN/TGC CCT TTC TTC AGC-3′ (SEQ ID NO: 5) Iowa Black FQ, Primer 1: CACGGTCAGTCTTCAGTGAG (SEQ ID NO: 6); Primer 2: CGCAACCAGATATGCTATGACT (SEQ ID NO: 7)), 2.25 μL RNase-free water, prelaid in a 384 well plate (ABI #4309849) using a 16-channel Matrix pipette. The plate was sealed with a PCR-compatible optical film (MicroAmp, ABI #4360954) and centrifuged (1500 rpm, 5 min, +4° C.) to collect all reagents in the bottom of the well and to remove bubbles. The plate content was amplified on a 7900HT thermal cycler (ABI) using the following conditions: Step 1: 50° C. for 10 min, Step 2: 95° C. for 3 min, Step 3 (40×): 95° C. for 15 s, 60° C. for 1 min. ROX (reaction volume 10 μL) was used as a passive reference. Data were collected with manual adjustment of the Ct threshold (beta-actin: 0.046, hEGLN3: 0.06) and were analyzed using the 2^(−ΔΔCt) method. Thus, for each sample, the following values were calculated: 2^(−Ct)a for beta-actin, 2^(−Ct)e for EGLN3, and 2^(−ΔCt) calculated as (2^(−Ct)e/2^(−Ct)a). The mean 2^(−ΔCt) as well as the corresponding standard deviation was calculated for each sample. Taking the DMSO-treated sample as a reference, the 2^(−ΔΔCt) for each sample was calculated as follows: 2^(−ΔΔCt)=2^(−ΔCt)sample/(2^(−ΔCt)DMSO). After calculating differential expression as 2^(−ΔΔCt) for each sample, it was then expressed as a percentage (×100) to obtain a dose-response curve in % of DMSO control and IC50s were calculated using a four-parametric fit model.

[3] = test system: HIF2α-dependent transcription in 786-O-HRE-Luc cells; assay: In vitro cellular hypoxia response element (HRE) reporter gene assay (RGA) for HIF2α; format: cell-based, human; details: Homo sapiens, 24 hours incubation
Protocol: as §1
The ability of compounds to inhibit HIF2α- and HIF1α-dependent transcription was assessed in 786-O-HRE-Luc and RCC4-HRE-Luc cells, respectively. The putative unselective inhibition of firefly luciferase activity or expression was assessed in 786-O-UB6-Luc and RCC4-UB6-Luc cells, respectively. The reporter lines were generated as follows: 786-O (RRID: CVCL_1051) and RCC4 (RRID: CVCL_0498) clear cell renal carcinoma cell lines were obtained from ATCC and Celeste Simon (University of Pennsylvania), respectively. Either cell line was transduced with a lentiviral vector in which the expression of a PEST-destabilized version of firefly-luciferase is under the control of either a minimal promoter coupled to four copies of a minimal hypoxia response element (HRE) sequence (pLenti 4×HRE Luc PEST), or a promoter from the house-keeping UBC gene (pLenti UB6 Luc PEST). In short, for the construction of the pLenti 4×HRE Luc PEST vector, 4×HRE DNA oligonucleotides were synthesized, annealed and cloned into pGL4.27 plasmid vector (Promega) predigested with NheI and HindIII restriction enzymes. The sequence of the two DNA oligonucleotides was as follows: NheI 4×HRE HindIII FWD: […] (SEQ ID NO: 8); NheI 4×HRE HindIII REV […] (SEQ ID NO: 9). The 4×HRE Luc PEST fragment was then PCRed from this plasmid with restriction enzyme sites NheI and XhoI at the two ends, and inserted into pLenti6/BLOCK iT DEST (Thermo Fisher Scientific) predigested with NheI and XhoI restriction enzymes. For the construction of the pLenti UB6 Luc PEST vector, the Luc PEST sequence was PCRed from pGL4.27 (Promega) using EcoRV and XhoI restriction enzymes at the two ends, and inserted into pLenti6/UBC/V5/DEST (Thermo Fisher Scientific) predigested with the same enzymes. 786-O and RCC4 cells (300,000 per well of a 6 well plate) were infected in the presence of 10 μg/ml polybrene with lentivirus harvested two days after transfection of HEK293-FT (ThermoFisher Scientific #R70007) cells (80% confluent in a 100 cm^2 dish) with a mix of 1.5 ml OptiMEM (ThermoFisher Scientific #31985062) containing 3 μg of the desired plasmids and 9 μl of ViralPower Packaging mix (ThermoFisher Scientific #K497500), and 1.5 ml OptiMEM containing 36 μl Lipofectamine 2000 (ThermoFisher Scientific #11668019). Successfully infected cells were selected using blasticidin (Gibco #A11139-03) at a final concentration of 5 μg/ml. The resulting stable cell lines were named 786-O pLenti 4×HRE Luc PEST (short: 786-O-HRE-Luc), 786-O pLenti UB6 Luc PEST (short: 786-O-UB6-Luc), RCC4 pLenti 4×HRE Luc PEST (short: RCC4-HRE-Luc) and RCC4 pLenti UB6 Luc PEST (short: RCC4-UB6-Luc). All 4 cell lines were maintained in growth medium composed of DMEM (GIBCO #11995-065), 2 mM L-Glutamine (BioConcept #5-10K50-H), 10% fetal calf serum (Gibco #A31608-01), 1× Penicillin/Streptomycin (BioConcept #4-01F00-H), 1 mM Sodium pyruvate (BioConcept #5-60F00-H) and 5 μg/ml blasticidin (Gibco #A11139-03) at 37° C. in a humidified 5% CO2 incubator.
For the reporter gene assay, the individual cell lines were seeded at 2,500 cells/20 μL/well into white-wall, clear-bottom 384-well plates (Greiner #781098) and incubated over night at 37° C. prior to addition of serial compound dilutions as described above. […]

Sequence of HIF2α PAS-B domain (236-350, biotinylated on the N-terminus) (Q99814 236-350): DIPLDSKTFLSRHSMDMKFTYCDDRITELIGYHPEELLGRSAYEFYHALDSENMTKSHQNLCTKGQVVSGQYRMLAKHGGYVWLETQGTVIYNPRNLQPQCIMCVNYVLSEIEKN

SMILES | IC50 [1] | IC50 [2] | IC50 [3]
N#CC1=CN2C[C@@]3(CCc4c3ccc(Br)c4F)N=C2C(OC(F)F)=C1 [Example 4, (S)-5′-bromo-8-(difluoromethoxy)-4′-fluoro-2′,3′-dihydro-3H-spiro[imidazo[1,2-a]pyridine-2,1′-indene]-6-carbonitrile] | 9 nM | 155 nM | 699 nM
FCOC1=CC(C(F)(F)F)=CN2C[C@@]3(CCc4c3ccc(Br)c4F)N=C12 [Example 5, (5)-5′-bromo-4′-fluoro-8-(fluoromethoxy)-6-(trifluoromethyl)-2′,3′-dihydro-3H-spiro[imidazo[1,2-a]pyridine-2,1′-indene]] | 9 nM | 138 nM | 328 nM
Fc1c(Br)ccc2c1CCC[C@@]21CN2C=C(C(F)(F)F)C=C(OC(F)F)C2=N1 [Example 7, (S)-6′-bromo-8-(difluoromethoxy)-5′-fluoro-6-(trifluoromethyl)-3′,4′-dihydro-2′H,3H-spiro[imidazo[1,2-a]pyridine-2,1′-naphthalene]] | ≤ 3 nM | 32 nM | 82 nM
O=C1CC[C@@]2(CN3C=C(C(F)(F)F)C=C(OC(F)F)C3=N2)c2ccc(Br)c(F)c21 [Example 8, (S)-6′-bromo-8-(difluoromethoxy)-5′-fluoro-6-(trifluoromethyl)-2′H,3H-spiro[imidazo[1,2-a]pyridine-2,1′-naphthalen]-4′(3′H)-one] | 14 nM | 198 nM | 271 nM
O=C1c2c(ccc(Br)c2F)[C@@]2(C[C@H]1F)CN1C=C(C(F)(F)F)C=C(OC(F)F)C1=N2 [Example 9, (1′S)-6′-bromo-8-(difluoromethoxy)-3′,5′-difluoro-6-(trifluoromethyl)-2′H,3H-spiro[imidazo[1,2-a]pyridine-2,1′-naphthalen]-4′(3H′)-one] | 15 nM | 173 nM | 2210 nM
O[C@H]1c2c(ccc(Br)c2F)[C@@]2(C[C@H]1F)CN1C=C(C(F)(F)F)C=C(OC(F)F)C1=N2 [Example 10, (1′S,3′R,4'S)-6′-bromo-8-(difluoromethoxy)-3′,5′-difluoro-6-(trifluoromethyl)-3′,4′-dihydro-2′H,3H-spiro[imidazo[1,2-a]pyridine-2,1′-naphthalen]-4′-ol] | 21 nM | 77 nM | 207 nM
FC(F)OC1=CC(C(F)(F)F)=CN2C[C@@]3(CCCc4cc(Br)ccc43)N=C12 [Example 11, (S)-6′-bromo-8-(difluoromethoxy)-6-(trifluoromethyl)-3′,4′-dihydro-2′H,3H-spiro[imidazo[1,2-a]pyridine-2,1′-naphthalene]] | ≤ 3 nM | 33 nM | 89 nM
FC(F)OC1=CC(C(F)(F)F)=CN2C[C@@]3(CCCc4ccccc43)N=C12 [Example 12, (S)-8-(difluoromethoxy)-6-(trifluoromethyl)-3′,4′-dihydro-2′H,3H-spiro[imidazo[1,2-a]pyridine-2,1′-naphthalene]] | 8 nM | 59 nM | 250 nM
N#CC1=CN2C[C@@]3(CCCc4c3ccc(Br)c4F)N=C2C(OC(F)F)=C1 [Example 13, (S)-6′-bromo-8-(difluoromethoxy)-5′-fluoro-3′,4′-dihydro-2′H,3H-spiro[imidazo[1,2-a]pyridine-2,1′-naphthalene]-6-carbonitrile] | 5 nM | 42 nM | 113 nM
Fc1c(Br)ccc2c1C(F)(F)CC[C@@]21CN2C=C(C(F)(F)F)C=C(OC(F)F)C2=N1 [Example 14, (S)-6′-bromo-8-(difluoromethoxy)-4′,4′,5′-trifluoro-6-(trifluoromethyl)-3′,4′-dihydro-2′H,3H-spiro[imidazo[1,2-a]pyridine-2,1′-naphthalene]] | 9 nM | 57 nM | 146 nM
N#Cc1ccc2c(c1F)C(F)(F)CC[C@@]21CN2C=C(C(F)(F)F)C=C(OC(F)F)C2=N1 [Example 15, (S)-8-(difluoromethoxy)-4′,4′,5′-trifluoro-6-(trifluoromethyl)-3′,4′-dihydro-2′H,3H-spiro[imidazo[1,2-a]pyridine-2,1′-naphthalene]-6′-carbonitrile] | 16 nM | 128 nM | 392 nM
